Data set [1] in a line: Stability in CD-1 mouse plasma. Format: in vitro ADME. The settings on record: commercial CD-1 mouse plasma; 2 μM. As for the experimental part: (§1) FIGS. 12A-D. NSN21778 in vitro metabolism stability, in vivo plasma pharmacokinetics, and side effect on body weight (Related to FIGS. 7A-G). (FIG. 12A) The metabolic stability of NSN21778 was evaluated in vitro after incubation with commercial liver S9 fractions in the presence of phase I (NADPH regenerating system) cofactors. Compound levels were determined by LC-MS/MS. Additionally, the stability of NSN21778 in the presence of commercial CD-1 mouse plasma was measured. (FIG. 12B) NSN21778 was dosed i.p. at 10 mg/kg to female CD-1 mice. Levels of NSN21778 in plasma and brain were evaluated by LC-MS/MS. (FIG. 12C) WTGFP, PS1KIGFP and APPKIGFP mice body weight after i.p. administrated with control solution or 10 mg/kg NSN21778 for 10 weeks. Data presented as mean±SE (n=5 mice). (FIG. 12D) Body weight gained for various treatments.
In vitro metabolism assays. Female ICR/CD-1 mouse S9 fractions were purchased from Celsis/In Vitro Technologies (Baltimore, Md.). 25 μl (0.5 mg) of S9 protein was added to a 15 ml glass screw cap tube. […] The supernatant was analyzed by LC-MS/MS. Stability in commercial mouse CD-1 plasma (Bioreclamation, Westbury, N.Y.) was measured in a similar fashion. […] Reactions were quenched with methanol as above and supernatants evaluated by LC-MS/MS. Compound half-life was determined by the method of substrate depletion as described (McNaney et al., 2008).

Data set [2] can be described thus: In vivo pharmacokinetics (plasma and brain). The settings on record: i.p. 10 mg/kg, female CD-1 mice. The arrangement: species or system mouse. As for the experimental part: as §1, with “(FIG. 12D) Body weight gained for various treatments.” left out
In vivo pharmacokinetics. […] The supernatant was then analyzed by LC-MS/MS. […] The limit of quantitation (LOQ) was defined as the lowest concentration at which back calculation yielded a concentration within 20% of the theoretical value and above the LOD signal. […] Because the animals were not perfused prior to tissue isolation, to determine the final brain concentration of NSN21778, the amount of compound in brain due to brain vasculature was first subtracted using the calculated plasma concentrations of NSN21778 and a value of 30 μl of blood/g of brain tissue (Kwon, 2001).

SMILES strings stand for the structures.

For the compound `CC(=O)Nc1ccc(CCNc2ncnc3ccc(N)cc23)cc1` [NSN21778, N-{4-[2-(6-Amino-quinazolin-4-ylamino)-ethyl]-phenyl}-acetamide], in data set [1], the stability in plasma result is recorded as “stable”. Further, in data set [2], the brain penetration result is reported as “poor” and the levels in plasma entry was “modest levels”.

Source of the values: US20180147206A1, “ACTIVATION OF NEURONAL STORE-OPERATED CALCIUM ENTRY PATHWAY FOR THE TREATMENT OF ALZHEIMER'S DISEASE” (The Board of Regents of the University of Texas System, priority 2015, published 2018).
